One assay has as its system ciliated cell. The assay is described as follows: Rotating ciliated explant (Example 9, Table 7). It is filed as cell-based. Particulars: for activation at 10 µg/mL: 10^-2 mg/ml (terbutaline 1-^-2 [sic]); for activation at 10 µg/mL / activation at 1 µg/mL / activation at 0.1 µg/mL: mean ± SD, > 20.0 significant, read-out: Acceleration (rotating ciliated explant); for activation at 1 µg/mL: 10^-3 mg/ml; for activation at 0.1 µg/mL: 10^-4 mg/ml. As to the method: (§1) Human ciliated cells were collected from a normal trachea by means of a branchoscope, the ciliated cells being separated by rubbing the bronchus while observing through the branchoscope, while the collection of frog cilitated cells was conducted by rubbing the palatine mucosta, without being specially careful. […] The groups of cells were transferred to a cover slip and one drop of chicken plasma (prepared by Difco Company) and one drop of 50% chicken embryo extract were added to the cells, thus forming clots. The rotary motion in the clots was recorded by means of a video recorder and the number of rotations per minute was measured. The agents were dissolved in the Medium 199 and were injected through a tube attached to a rose chamber. The state of rotary motion 5 minutes, 10 minutes and 15 minutes after the injection were recorded by means of a video recorder, and the number of revolutions was measured.
A test was conducted to examine the above-mentioned effect by using sodium salt of N-Acetylneuraminic Acid, in accordance with the same testing method as that of Example 2.

In assay [1] the test system is ciliated cells from human airway and frog palate. The assay is described as follows: Rotation of ciliated cell groups (Example 4). It is filed as cell-based.
Description: Using ciliated cells from human airway and frog palate, rotation of cell groups due to ciliary beat was observed before and after application of N-acetylneuraminic acid and calcium salt of N-acetylneuraminic acid, in order to confirm the effect of these agents on the cilitated cells.
as §1, with “measured.” for “measured. The agents were dissolved in the Medium 199 and were injected through a tube attached to a rose chamber. The state of rotary motion 5 minutes, 10 minutes and 15 minutes after the injection were recorded by means of a video recorder, and the number of revolutions was measured.”

Assay [2] relates to palatine mucosa of frog. Description: Ciliary movement of frog palatine mucosa, particle transport method (Example 3, Tables 1-3). In kind it is cell-based, bull frog. Particulars: for activation at 100 µg/mL / activation at 10 µg/mL: control = 0. The procedure: Bull frogs (furnished by Saitama Test Animal) weighing 300 to 450 g were used regardless of sex.
N-acetylneuraminic acid and calcium salt of N-acetylneuraminic acid (provided by Kanto Ishiseiyaku Kabushiki Kaisha), as well as acetylcholine chloride (furnished by Sigma Kabushiki Kaisha) were used as the test substances.
(§2) Mucociliary transport was measured by the particle transport method. After decapitation of a frog, the surface of the palatine mucosa was separated with minimized damage and of fixed to a cork plate in a Petri dish which was then filled with 20 ml of Ringer's solution (trishydrochloric acid). The palatine mucosa was left in this state for 30 minutes before the commencement of measurement. For measurement, the Ringer's solution was removed and fine pieces of cork (capable of passing pharmaceutical sieve No. 5 but not capable of passing No. 6) were placed on the surface of the palatine mucosa, and the time (in seconds) required for the cork piece to move 1 cm was measured. The duration of movement, i.e., moving speed, was measured also in the state immediately after the removal of the Ringer's solution or pharmaceutical solution.

Assay [3] concerns palatine mucosa of frog. The assay is described as follows: Mucociliary transport of frog palatine mucosa (Example 8, Table 6). In kind it is cell-based. Particulars: mean ± SD, over 20.0% significant, read-out: Acceleration (mucociliary transport); for activation at 100 µg/mL: 10^-1 mg/ml; for activation at 10 µg/mL: 10^-2 mg/ml; for activation at 1 µg/mL: 10^-3 mg/ml; for activation at 0.1 µg/mL: 10^-4 mg/ml. As to the method: as §2

Counter-ions that a name gives are not always drawn. Like-named read-outs stand apart in the source and are kept apart here.

On to `CC(C)(C)NCC(O)c1cc(O)cc(O)c1` (stereo not shown) [terbutaline, 5-[2-[(1.1-dimetylethyl)amino]-1-hydoxyethyl]-1,3-benzenediole], for which, in the assay with ciliated cell (10^-4 to 10^- mg/ml (so in the source)), the Effect on rotation entry is reported as “general tendency of increase of the rotation”. In the assay with ciliated cell (5 min, 5 min after perfusion), the activation at 10 µg/mL was 18.6 ± 0.3%, the activation at 1 µg/mL is 51.2 ± 36% and the activation at 0.1 µg/mL is -5.2 ± 12.2%. In the assay with ciliated cell (10 min, 10 min after perfusion), the activation at 10 µg/mL stood at 24.8 ± 3.5%, the activation at 1 µg/mL came to 37.2 ± 35.5% and the activation at 0.1 µg/mL amounted to 1.6 ± 4.6%. In the assay with ciliated cell (0.25 h, 15 min after perfusion), the activation at 10 µg/mL came out at 2.7 ± 7.4%, the activation at 1 µg/mL stood at 42.1 ± 32.8% and the activation at 0.1 µg/mL came out at 6.7 ± 3%. Also, in assay [1] (10^-3 to 3×10^-2 mg/ml), the “Effect on rotary motion of the cilium cells” value is listed as “the rotary motion of the cilium cells is increased”. In assay [1] (5 minutes after application, 10^-3 to 3×10^-2 mg/ml), the “Effect on rotary motion, time dependence” value was “particularly remarkable 5 minutes after the application”.

`CC(=O)N[C@H]1[C@H]([C@H](O)[C@H](O)CO)OC(O)(C(=O)O)C[C@@H]1O` (stereo partly shown) [calcium salt of N-acetylneuraminic acid]: the Movement in the assay on palatine mucosa of frog [2] (10^-4 g/ml, frog number 1) was 23.0 s/cm; with palatine mucosa of frog [2] (10^-4 g/ml, frog number 2) it was 29.0 s/cm; in the assay with palatine mucosa of frog [2] (10^-4 g/ml, frog number 3) it was 19.7 s/cm; with palatine mucosa of frog [2] (10^-5 g/ml, frog number 1), 25.0 s/cm; with palatine mucosa of frog [2] (10^-5 g/ml, frog number 2) it was 29.3 s/cm; with palatine mucosa of frog [2] (10^-5 g/ml, frog number 3), 24.3 s/cm. Moreover, the activation at 100 µg/mL with palatine mucosa of frog [2] (10^-4 g/ml, frog number 1, read-out: Acceleration) was determined as 39%; in the assay with palatine mucosa of frog [2] (10^-4 g/ml, frog number 2, read-out: Acceleration), 28.7%; in the assay with palatine mucosa of frog [2] (10^-4 g/ml, frog number 3, read-out: Acceleration), 46.8%. Further, the activation at 10 µg/mL is 33.7% in the assay with palatine mucosa of frog [2] (10^-5 g/ml, frog number 1, read-out: Acceleration); 28% with palatine mucosa of frog [2] (10^-5 g/ml, frog number 2, read-out: Acceleration); 34.2% in the assay with palatine mucosa of frog [2] (10^-5 g/ml, frog number 3, read-out: Acceleration). In addition, the “Effect on ciliary movement of palatine mucosa” value in the assay with palatine mucosa of frog [2] (Tables 1 and 3) is “acceleration of the ciliary movement of palatine mucosa in a certain dose-dependency”. For the same compound, the “Ciliary movement promoting effect compared with acetylcholine” value in the assay with palatine mucosa of frog [2] (acetylcholine control at 10^-5 and 10^-4) is on record as “substantially the same ciliary movement promoting effect as the acetylcholine”.

With `CC(=O)OCC[N+](C)(C)C.[Cl-]` [acetylcholine, acetylcholine chloride, reference compound], the activation at 10 µg/mL with ciliated cell (5 min, 5 min after perfusion) is 58.1 ± 38.1%; in the assay with ciliated cell (10 min, 10 min after perfusion), 52 ± 32.6%; in the assay on ciliated cell (0.25 h, 15 min after perfusion) it was 44.5 ± 22%; with palatine mucosa of frog [3] (5 min, 5 min after applied), 17.5 ± 14.3%; with palatine mucosa of frog [3] (10 min, 10 min after applied), 18.8 ± 21.1%; in the assay on palatine mucosa of frog [3] (0.25 h, 15 min after applied), 24.9 ± 25.6%. For the same compound, the activation at 10 µg/mL in the assay on palatine mucosa of frog [2] (read-out: Acceleration, 10^-5 g/ml, frog number 1) came out at 40%; in the assay on palatine mucosa of frog [2] (read-out: Acceleration, 10^-5 g/ml, frog number 2) it was 19.7%; in the assay with palatine mucosa of frog [2] (read-out: Acceleration, 10^-5 g/ml, frog number 3), 33.1%. The activation at 1 µg/mL in the assay on ciliated cell (5 min, 5 min after perfusion) was 27.8 ± 12.2%; with ciliated cell (10 min, 10 min after perfusion) it was 10.6 ± 15%; in the assay on ciliated cell (0.25 h, 15 min after perfusion) it was 20.8 ± 26.4%; with palatine mucosa of frog [3] (5 min, 5 min after applied), 12.3 ± 8.5%; with palatine mucosa of frog [3] (10 min, 10 min after applied), 19.9 ± 16.8%; with palatine mucosa of frog [3] (0.25 h, 15 min after applied), 13.9 ± 20.5%. Further, the activation at 0.1 µg/mL was -1.7% in the assay on ciliated cell (5 min, 5 min after perfusion); 0.8% in the assay with ciliated cell (10 min, 10 min after perfusion); 14.6% with ciliated cell (0.25 h, 15 min after perfusion); 3 ± 7.6% in the assay with palatine mucosa of frog [3] (5 min, 5 min after applied); 3.8 ± 15.5% in the assay on palatine mucosa of frog [3] (10 min, 10 min after applied); -5.5 ± 10% with palatine mucosa of frog [3] (0.25 h, 15 min after applied). Besides, the Effect on rotation result in the assay with ciliated cell (between 10^-3 and 10^-2 mg/ml) was “increase in the rotation in a certan dependency on the dose”. In addition, the entries for the “Time of speed peak of rotary motion after application” value in assay [1] (3×10^-3 mg/ml) and in assay [1] (10^-3 mg/ml) were roughly 5 min and “about 10 minutes”, respectively. Moreover, in assay [1] (10^-3 mg/ml and 3×10^-3 mg/ml), the “Effect on speed of rotary motion of the cilium cells” value is recorded as “the speed of rotary motion of the cilium cells is increased”. In assay [1] (10^-3 and 3×10^-3 mg/ml, both cases), the “Time after application at which rotary motion stopped” value stood at 13 min. In addition, the activation at 100 µg/mL in the assay on palatine mucosa of frog [3] (5 min, 5 min after applied) is 22.8 ± 26.1%; with palatine mucosa of frog [3] (10 min, 10 min after applied) it was 31 ± 24.9%; in the assay on palatine mucosa of frog [3] (0.25 h, 15 min after applied), 30.5 ± 19.5%; with palatine mucosa of frog [2] (read-out: Acceleration, 10^-4 g/ml, frog number 1), 53.3%; in the assay with palatine mucosa of frog [2] (read-out: Acceleration, 10^-4 g/ml, frog number 2), 41.4%; in the assay with palatine mucosa of frog [2] (read-out: Acceleration, 10^-4 g/ml, frog number 3) it was 47.3%. Also, the Movement in the assay on palatine mucosa of frog [2] (10^-4 g/ml, frog number 1) came out at 21.0 s/cm; in the assay on palatine mucosa of frog [2] (10^-4 g/ml, frog number 2) it was 21.7 s/cm; in the assay with palatine mucosa of frog [2] (10^-4 g/ml, frog number 3), 20.7 s/cm; in the assay on palatine mucosa of frog [2] (10^-5 g/ml, frog number 1) it was 27.0 s/cm; in the assay with palatine mucosa of frog [2] (10^-5 g/ml, frog number 2), 29.7 s/cm; with palatine mucosa of frog [2] (10^-5 g/ml, frog number 3), 26.3 s/cm.

The values above are taken from patent US4698332A, “Expectorant” (Mect Corporation, priority 1984, dated 1987).
